# B1: WT Dcm: E. coli's naturally occurring DNA Cytosine Methyltransferase (Dcm) (protein, UniProt P0AED9 1-472, looked up)
# DNA-cytosine methyltransferase: MQENISVTDSYSTGNAAQAMLEKLLQIYDVKTLVAQLNGVGENHWSAAILKRALANDSAWHRLSEKEFAHLQTLLPKPPAHHPHYAFRFIDLFAGIGGIRRGFESIGGQCVFTSEWNKHAVRTYKANHYCDPATHHFNEDIRDITLSHKEGVSDEAAAEHIRQHIPEHDVLLAGFPCQPFSLAGVSKKNSLGRAHGFACDTQGTLFFDVVRIIDARRPAMFVLENVKNLKSHDQGKTFRIIMQTLDELGYDVADAEDNGPDDPKIIDGKHFLPQHRERIVLVGFRRDLNLKADFTLRDISECFPAQRVTLAQLLDPMVEAKYILTPVLWKYLYRYAKKHQARGNGFGYGMVYPNNPQSVTRTLSARYYKDGAEILIDRGWDMATGEKDFDDPLNQQHRPRRLTPRECARLMGFEAPGEAKFRIPVSDTQAYRQFGNSVVVPVFAAVAKLLEPKIKQAVALRQQEAQHGRRSR
# B2: Dcm N436K: CCWGG Dcm Carboxymethyltransferase with a C-terminal His Tag, SEQ ID NO: 3 / SEQ ID NO: 4 (protein)
# chain: MQENISVTDSYSTGNAAQAMLEKLLQIYDVKTLVAQLNGVGENHWSAAILKRALANDSAWHRLSEKEFAHLQTLLPKPPAHHPHYAFRFIDLFAGIGGIRRGFESIGGQCVFTSEWNKHAVRTYKANHYCDPATHHFNEDIRDITLSHKEGVSDEAAAEHIRQHIPEHDVLLAGFPCQPFSLAGVSKKNSLGRAHGFACDTQGTLFFDVVRIIDARRPAMFVLENVKNLKSHDQGKTFRIIMQTLDELGYDVADAEDNGPDDPKIIDGKHFLPQHRERIVLVGFRRDLNLKADFTLRDISECFPAQRVTLAQLLDPMVEAKYILTPVLWKYLYRYAKKHQARGNGFGYGMVYPNNPQSVTRTLSARYYKDGAEILIDRGWDMATGEKDFDDPLNQQHRPRRLTPRECARLMGFEAPGEAKFRIPVSDTQAYRQFGKSVVVPVFAAVAKLLEPKIKQAVALRQQEAQHGRRSRHHHHHH
# modifications: C-terminal His tag; Dcm N436K with His tag
# Key:
# APOBEC3A (A3A) = APOBEC3A (A3A) (Homo sapiens, UniProt P31941); experiment: A3A deamination of ssDNA with homogeneously 5-modified cytosines (TA cloning assay); format: biochemical; conditions: 8 μM A3A, 37° C., two hours
# Description: Single stranded DNA with homogenously modified cytosines was obtained by LATE-PCR as previously described (Schutsky et al. Nucleic Acids Res 2017). Modified triphosphates were obtained from TriLink unless otherwise noted here (mC: NEB, peC/pC: synthesized in house, purified by ion-pair chromatography, Ghanty et al. JACS 2018). 1 ng of purified single stranded DNA was incubated with 8 μM A3A at 37° C. for two hours. This 202 base pair amplicon was PCR amplified and TA cloned. Single clones were sent for Sanger Sequencing. After alignment to the parent 202mer substrate (Table 1), C to T conversions were quantified as a percentage of total Cs.
# To determine more exact parameters that define the discrimination as a function of sterics at the C5 position, we synthesized or obtained dxCTP analogs, with variable (x) 5-position substituents, and used established approaches to generate long ssDNA substrates with homogeneous C modifications (36). These substrates were reacted with A3A, reamplified and analyzed for deamination by restriction digestion at a specific site.
# [1] = tested on: pMG81-M.MpeI plasmid CCGG sites; conditions: in vivo, plasmid recovered after induced expression
# plasmid DNA CpG sites = format: cell-based, E. coli
# [2] = tested on: unmethylated phage gDNA CpG sites; experiment: Amplicon sequencing of phage gDNA treated with M.MpeI N374K and SAM or CxSAM, then bisulfite or A3A
# pUC19 plasmid DNA = experiment: pUC19 assay (in vitro transfer of SAM or CxSAM, HpaII/HhaI challenge)
# [3] = tested on: E. coli genomic DNA CCWGG sites; experiment: Nucleoside LC-MS/MS of genomic DNA after in vivo expression of Dcm variants; conditions: dam-/dcm- E. coli, gDNA
# Sequence of APOBEC3A (A3A) (P31941 whole entry): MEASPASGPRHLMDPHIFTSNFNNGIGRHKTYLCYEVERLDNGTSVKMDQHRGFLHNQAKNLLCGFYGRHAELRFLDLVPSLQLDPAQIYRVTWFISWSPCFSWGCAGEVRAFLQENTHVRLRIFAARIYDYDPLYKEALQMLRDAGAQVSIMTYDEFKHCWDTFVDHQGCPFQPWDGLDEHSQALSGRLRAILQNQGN
molecule,measurement,setting,value
5-propynyl-dC [5pyC],deamination by A3A of ssDNA with all Cs replaced by the modified base,APOBEC3A (A3A),undetectable levels of deamination
"M.MpeI N374K: CpG M.MpeI Carboxymethyltransferase with a C-terminal His Tag, SEQ ID NO: 1 (lacks His tag) / SEQ ID NO: 2",HpaII and MspI digestion pattern of encoding plasmid,[1],faint ~2 kB band resistant to MspI digestion
same,change of 5cxmC signal in the added presence of the CmoA plasmid,plasmid DNA CpG sites,an increase in 5cxmC signal
same,in vivo plasmid carboxymethylation (5cxmC) by LC-MS/MS,plasmid DNA CpG sites,can be detected and lost
same,level of 5cxmC modification across overexpression conditions,plasmid DNA CpG sites,greatest level of 5cxmC modification
same,DNA newly resistant to A3A deamination,"[2]; CxSAM, A3A deamination",~ 50%
same,DNA modified as 5cxmC (cytosine calls at CpGs after bisulfite),"[2]; CxSAM, bisulfite deamination",~ 50%
same,DNA newly modified to be 5mC (cytosine calls at CpGs after bisulfite),"[2]; SAM, bisulfite deamination",~ 60%
same,protection of pUC19 plasmid from restriction digestion,pUC19 plasmid DNA; CxSAM substrate,newly gains the ability to transfer CxSAM
same,protection of pUC19 plasmid from restriction digestion,pUC19 plasmid DNA; SAM substrate,transfers SAM less efficiently than the WT enzyme
B1,formation of 5cxmC in the native E. coli genome,[3],not
same,methylation of cytosine (detection of 5mC),[3],could methylate cytosine
B2,CCWGG sites carboxymethylated (5cxmC relative to total CCWGGs),[3],> 1.5%
same,formation of 5cxmC in the native E. coli genome,[3],could catalyze the formation of 5cxmC
same,methylation of cytosine (detection of 5mC),[3],could methylate cytosine

# — patent publication US12680128B2
